Publication PMC6941952, “A homogeneous bioluminescent immunoassay to probe cellular signaling pathway regulation” (Communications Biology, 2020)
“And” between values parts separate entries of the source, which are not always exact repeats. Equal entries are not always repeated.

Key:
Set-up in all cases: species or system human
AKT Phospho-Ser473 = assay: NanoBiT p-AKT cell-based immunoassay in MCF-7 cells; conditions: for P-AKT (% compared to no LY294002), Average / P-AKT (% compared to no LY294002) / P-AKT, Raw data / P-AKT, Subtract reagent background: Insulin 1 uM; for P-AKT (% compared to no LY294002), Average: average of replicates; for P-AKT (% compared to no LY294002) / P-AKT, Raw data / P-AKT, Subtract reagent background: single replicates
Protocol: (§1) Prior to NanoBiT Cell-Based Immunoassay, 50,000 cells were seeded in 160 µl of complete growth media per well of a 96-well plate and incubated overnight. The cells were checked under microscope and it was determined that 50,000 cells per well in 96-well plate is under 90% confluency for all cells tested. If necessary, the cell culture media were replaced with serum-free media after the cells were stably adherent on the plate and incubated overnight. To treat cells with activators or inhibitors, medium was changed to 30 µl of medium containing inhibitors. If activation of a specific pathway is needed, the cells were stimulated with 10 µl of medium containing activators. To lyse the cells, 10 µl of lysis buffer containing 0.1% digitonin diluted in 1X immunoassay buffer with protease and phosphatase inhibitors was added and the plates were mixed vigorously for 20 min. Then, 50 µl of an antibody mix containing two primary antibodies against the target protein and NanoBiT detecting antibodies (0.3 µl each per well), diluted in 1X immunoassay buffer was added to the lysates. The plates were incubated at 23 °C for 90 min, followed by the addition of 25 µl of Nano-Glo® reagent consisting of Nano-Glo® Luciferase Assay Substrate mixed with 1X immunoassay buffer. Luminescence was measured using a plate-reading luminometer.
(§2) Single dose or dose response inhibitor treatments were performed prior to activation of the pathways as follows. For IκBα, the cells were treated in 30 µl medium with IKK16 or MG132 for 60 min before the addition of 10 µl of DMEM containing appropriate concentration of TNFα. To measure phosphorylation of AKT or STAT3, the corresponding NanoBiT immunoassays were developed with MCF-7 or A431 cells, respectively, according the same scheme used to develop the IκBα assay using the primary antibodies for AKT and STAT3 described in the reagents section. For the AKT assay, MCF-7 cells were incubated overnight in phenol-red free DMEM medium (Gibco #21063-029) without serum. Treatment with LY294002 was performed in 30 µl medium and cells were incubated for 60 min before the addition of 1 µM Insulin. To measure STAT3 phosphorylation, A431 cells were incubated overnight in DMEM medium without serum. […] After addition of the stimulators, the cells were incubated for additional times as follows. IκBα phosphorylation and degradation analyses required both time courses and single time points as described in figures. […] The NanoBiT immunoassay protocol was followed as described above.
(§3) All 96-well assay plates were read using a GloMax® 96 Microplate Luminometer from Promega. The instrument was set to 0.5 s integration time. In order to obtain net change of signal, the reagent background values (signal from the well containing all reagent except primary antibodies) were subtracted from the sample values. To plot and analyze the data, Microsoft Excel and GraphPad Prism® Software were used. IC50 values were determined by using a nonlinear regression fit to a sigmoidal dose response (variable slope).

total AKT = assay: NanoBiT cell-based immunoassay, total AKT in MCF-7 cells; conditions: MCF-7 cells, insulin 1 µM 10 min, LY294002 20 µM 1 h
Protocol: as §1, §2, §3

STAT3 Phospho-Tyr705 = assay: NanoBiT pSTAT3 cell-based immunoassay in A431 cells; conditions: for Raw data P-STAT3 / Subtract reagent background P-STAT3 / P-STAT3 (% compared to no inhibitor) / Average P-STAT3 (% compared to no inhibitor): IL-6 10 ng/ml, A431, Fig 6e; for P-STAT3 (% compared to no inhibitor): replicate
Protocol: as §1, with “The cells were checked under microscope and it was determined that 50,000 cells per well in 96-well plate is under 90% confluency for all cells tested.” left out
as §2, with “For the AKT assay, MCF-7 cells were incubated overnight in phenol-red free DMEM medium (Gibco #21063-029) without serum.” left out
as §3

[1] = A431 cells, pretreated 1 h, IL-6 10 ng per ml 30 min

## O=c1cc(N2CCOCC2)oc2c(-c3ccccc3)cccc12 [LY294002, 2-(4-morpholinyl)-8-phenyl-4H-1-benzopyran-4-one]
AKT Phospho-Ser473; Homo sapiens, MCF7, MCF-7 cells, pretreated 1 h, insulin 1 µM 10 min, read-out: IC50, inhibition of AKT phosphorylation after insulin treatment
  IC50: 8.89 µM
AKT Phospho-Ser473; LY294002 0.00190735 uM
  P-AKT (% compared to no LY294002), Average: 98.2%
  P-AKT (% compared to no LY294002): 99.8% and 97.4% and 97.5%
  P-AKT, Raw data: 2596000 and 2655000 and 2614000
  P-AKT, Subtract reagent background: 2495800 and 2454800 and 2436800
AKT Phospho-Ser473; LY294002 0.00762939 uM
  P-AKT (% compared to no LY294002), Average: 100.2%
  P-AKT (% compared to no LY294002): 101.9% and 99.8% and 98.9%
  P-AKT, Raw data: 2632000 and 2707000 and 2673000
  P-AKT, Subtract reagent background: 2548800 and 2514800 and 2473800
AKT Phospho-Ser473; LY294002 0.0305176 uM
  P-AKT (% compared to no LY294002), Average: 99.6%
  P-AKT (% compared to no LY294002): 100.5% and 98.7% and 99.6%
  P-AKT, Raw data: 2646000 and 2668000 and 2645000
  P-AKT, Subtract reagent background: 2511750 and 2488750 and 2489750
AKT Phospho-Ser473; LY294002 0.12207 uM
  P-AKT (% compared to no LY294002), Average: 97.0%
  P-AKT (% compared to no LY294002): 98.2% and 96.0% and 96.8%
  P-AKT, Raw data: 2577000 and 2614000 and 2578000
  P-AKT, Subtract reagent background: 2456500 and 2420500 and 2419500
AKT Phospho-Ser473; LY294002 0.488281 uM
  P-AKT (% compared to no LY294002), Average: 97.0%
  P-AKT (% compared to no LY294002): 100.1% and 96.2% and 94.5%
  P-AKT, Raw data: 2521000 and 2661000 and 2582000
  P-AKT, Subtract reagent background: 2503600 and 2424600 and 2363600
AKT Phospho-Ser473; LY294002 1.95312 uM
  P-AKT (% compared to no LY294002), Average: 89.9%
  P-AKT (% compared to no LY294002): 90.1% and 89.4%
  P-AKT, Raw data: 2390000 and 2409000 and 2425000
  P-AKT, Subtract reagent background: 2253650 and 2269650 and 2234650
AKT Phospho-Ser473; LY294002 7.8125 uM
  P-AKT (% compared to no LY294002), Average: 57.7%
  P-AKT (% compared to no LY294002): 58.2% and 58.0% and 57.0%
  P-AKT, Raw data: 1581000 and 1612000 and 1617000
  P-AKT, Subtract reagent background: 1455800 and 1460800 and 1424800
AKT Phospho-Ser473; LY294002 31.25 uM
  P-AKT (% compared to no LY294002), Average: 11.5%
  P-AKT (% compared to no LY294002): 11.5% and 11.7% and 11.4%
  P-AKT, Raw data: 439900 and 442300 and 448200
  P-AKT, Subtract reagent background: 288200 and 294100 and 285800
AKT Phospho-Ser473; LY294002 500 uM
  P-AKT (% compared to no LY294002), Average: 1.5%
  P-AKT (% compared to no LY294002): 1.5% and 1.4% and 1.6%
  P-AKT, Raw data: 166500 and 165600 and 161400
  P-AKT, Subtract reagent background: 38600 and 34400 and 39500
AKT Phospho-Ser473; LY294002 […]
  P-AKT (% compared to no LY294002), Average: 1.8%
AKT Phospho-Ser473; MCF-7 cells, 20 µM 1 h pretreatment, insulin 1 µM 10 min
  insulin-induced increase in AKT phosphorylation: suppressed
Total AKT
  total level of AKT protein: stayed constant

## Tocilizumab: humanized monoclonal antibody against the IL-6 receptor, approved immunosuppressive drug
STAT3 Phospho-Tyr705; [1]
  IC50, inhibition of Phospho-STAT3: 0.16 µg/mL
  STAT3 phosphorylation / JAK2-STAT3 pathway activation, dose response: inhibited
STAT3 Phospho-Tyr705; Actemra 7.62939e-5 ug/ml
  Raw data P-STAT3: 317500 and 271600 and 267300
  Subtract reagent background P-STAT3: 173175 and 168875 and 219075
  P-STAT3 (% compared to no inhibitor): 117.6%
STAT3 Phospho-Tyr705; Actemra 0.000305176 ug/ml
  Raw data P-STAT3: 341900 and 251000 and 260600
  Subtract reagent background P-STAT3: 155645 and 165245 and 246545
  P-STAT3 (% compared to no inhibitor): 91.7% and 120.7%
STAT3 Phospho-Tyr705; Actemra 0.0012207 ug/ml
  Raw data P-STAT3: 299200 and 250300 and 276700
  Subtract reagent background P-STAT3: 153990 and 180390 and 202890
STAT3 Phospho-Tyr705; Actemra 0.00488281 ug/ml
  Average P-STAT3 (% compared to no inhibitor): 74.6%
  Raw data P-STAT3: 245000 and 216200 and 217700
  Subtract reagent background P-STAT3: 121185 and 122685 and 149985
  P-STAT3 (% compared to no inhibitor): 82.3% and 68.1% and 73.4%
STAT3 Phospho-Tyr705; Actemra 0.0195312 ug/ml
  Average P-STAT3 (% compared to no inhibitor): 41.8%
  Raw data P-STAT3: 170000 and 159800 and 165700
  Subtract reagent background P-STAT3: 67955 and 73855 and 78155
  P-STAT3 (% compared to no inhibitor): 46.2% and 41.0% and 38.2%
STAT3 Phospho-Tyr705; Actemra 0.078125 ug/ml
  Average P-STAT3 (% compared to no inhibitor): 19.4%
  Raw data P-STAT3: 138700 and 129600 and 119000
  Subtract reagent background P-STAT3: 34580 and 23980 and 43680
  P-STAT3 (% compared to no inhibitor): 23.5% and 13.3% and 21.4%
STAT3 Phospho-Tyr705; Actemra 0.3125 ug/ml
  Average P-STAT3 (% compared to no inhibitor): 9.3%
  Raw data P-STAT3: 116800 and 110300 and 113700
  Subtract reagent background P-STAT3: 13270 and 16670 and 19770
  P-STAT3 (% compared to no inhibitor): 9.0% and 9.3% and 9.7%
STAT3 Phospho-Tyr705; Actemra 5 ug/ml
  Average P-STAT3 (% compared to no inhibitor): 7.9%
  Raw data P-STAT3: 110700 and 107600 and 97720
  P-STAT3 (% compared to no inhibitor): 10.8% and 3.4% and 9.3%
STAT3 Phospho-Tyr705; Actemra 20 ug/ml
  Average P-STAT3 (% compared to no inhibitor): 7.7%
  Raw data P-STAT3: 106200 and 97590
  P-STAT3 (% compared to no inhibitor): 11.0% and 4.2% and 7.9%
STAT3 Phospho-Tyr705; Actemra […]
  Average P-STAT3 (% compared to no inhibitor): 7.7%
